Source: paper PMC12686243, “Synthesis and preclinical evaluation of FAP-targeting radiotracers for PET and optical imaging” (EJNMMI Radiopharmacy and Chemistry, 2025)

System: hFAP-HT1080 and WT-HT1080 xenografts
Assay: small-animal PET imaging of xenograft-bearing mice
Format: in vivo, female NMRI-nude mice
Source text: Female athymic NMRI-nude mice (Rj:NMRI-Foxn1nu, Janvier Labs, France or Charles River, Germany) between 8 and 20 weeks of age were used. Subsequently, the prepared cells (1.0–2.0 × 10^6 hFAP/WT-HT1080 per animal) were subcutaneously injected into the right and left thigh, respectively. Xenograft tissue for real-time binding experiments was derived from animals injected with both target-positive and negative cells, however only showing growth of one tumor entity. When approaching endpoints, mice were anesthetized and euthanized. The tumor was quickly removed, frozen in − 45 °C 2-methylbutane and stored in sealed tubes at − 80 °C.
PET and X-ray computed tomography (CT) were performed in a dedicated small animal scanner (nanoScan PET/CT, Mediso, Hungary). Animals received a single dynamic scan corresponding to 0–2 h post injection. The radiotracer solution (8 – 20 MBq injected activity) was delivered via an i.v. catheter (lateral tail vein) and PET acquisition was started simultaneously with the injection. Blocking was performed by pre-injection (~ 5 min prior to tracer) of 100 nmol of FAPI-04. Three-dimensional list mode data were binned (400–600 keV energy window) and sorted into 35-time frames (15 × 10 s, 5 × 30 s, 5 × 60 s, 4 × 300 s, 3 × 600 s, 3 × 1200 s). Time frames were then reconstructed using the Tera-Tomo™ 3D algorithm with a voxel size of 0.4 mm and corrected for decay, scatter, and attenuation. PET data was analyzed using Rover (ABX GmbH, Germany). Three-dimensional volumes of interest (VOI) were delineated based on organs/tissues [xenografts, kidney, liver, shoulder and muscle (~ biceps brachii)] and a fixed threshold (35% of the measured maximum intensity) was applied. This yielded standardized uptake values (SUV = [MBq detected activity/mL tissue] / [MBq injected activity/g body weight], mL/g) for the chosen VOI.

| SMILES | radioactivity in hFAP-HT1080 xenografts higher than in WT-HT1080 tumor (SUVmax) (SUVmax) [%] | radioactivity in hFAP-HT1080 xenografts higher than in WT-HT1080 tumor (SUVmean) (SUVmean) [%] | increase of radioactivity in the kidney compared to tracer-only animals (pre-injection of unlabeled FAPI-04, depending on timepoint) |
| --- | --- | --- | --- |
| CN(CCCN1CCN(C(=O)[C@H](CCCCNC(=O)CC[C@H](C(=O)[O-])N2CCN(CC(=O)[O-])CCN(CC(=O)[O-])CC2)NC(=O)CCOCCOCCOCCOCCNC(=O)CCCCC[N+]2=C(C=CC=CC=C3N(CCCS(=O)(=O)O)c4ccc(S(=O)(=O)O)cc4C3(C)C)C(C)(CCCS(=O)(=O)O)c3cc(S(=O)(=O)[O-])ccc32)CC1)c1ccc2nccc(C(=O)NCC(=O)N3CC(F)(F)C[C@H]3C#N)c2c1.[68Ga+3] (stereo partly drawn) [[^68Ga]Ga-NODAGA-FAP647] | 392 | – | – |
| CN(CCCN1CCN(C(=O)[C@H](CCCCNC(=O)CC[C@H](C(=O)[O-])N2CCN(CC(=O)[O-])CCN(CC(=O)[O-])CC2)NC(=O)CCOCCOCCOCCOCCNC(=O)CCCCCN2C(=CC=C3CCCC(C=CC4=[N+](CCCCS(=O)(=O)[O-])c5ccc(S(=O)(=O)O)cc5C4(C)C)=C3Oc3ccc(S(=O)(=O)O)cc3)C(C)(C)c3cc(S(=O)(=O)O)ccc32)CC1)c1ccc2nccc(C(=O)NCC(=O)N3CC(F)(F)C[C@H]3C#N)c2c1.[68Ga+3] [[^68Ga]Ga-NODAGA-FAP800] | – | 236 | not observed |
